Assay results published in PubChem BioAssay AID256 (DTP/NCI, 2004).
Several values for one entry are separate records, joined by “and”; a condition that tells them apart may be missing. Equal values may be shown once. Inconclusive results and toxic doses are left out. The calls were made as follows: active = survival T/C of 150% or more; inactive = T/C below 125% in these data.

System: CD2F1 mice, L1210 leukemia ip, survival T/C
Experiment: NCI In Vivo Anticancer Drug Screen. Data for tumor model L1210 Leukemia (intraperitoneal) in CD2F1 (CDF1) mice
Settings: endpoint: mean survival time, higher = longer survival
Summary of the method: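 Vehicle-treated tumor-bearing mice served as controls (C) for compound-treated mice (T). Reported figure is T divided by C.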

[1] = dose: 25.0 mg/kg/injection, schedule: Q01DX009 (ip), vehicle: saline
[2] = dose: 25.0 mg/kg/injection, schedule: Q04DX003 (ip), vehicle: saline
[3] = dose: 50.0 mg/kg/injection, schedule: Q01DX009 (ip), vehicle: saline
[4] = dose: 50.0 mg/kg/injection, schedule: Q04DX003 (ip), vehicle: saline
[5] = dose: 100.0 mg/kg/injection, schedule: Q01DX001 (ip), vehicle: saline
[6] = dose: 100.0 mg/kg/injection, schedule: Q01DX009 (ip), vehicle: saline
[7] = dose: 100.0 mg/kg/injection, schedule: Q04DX003 (ip), vehicle: saline
[8] = dose: 100.0 mg/kg/injection, schedule: Q01DX001 (ip), vehicle: saline with Tween-80
[9] = dose: 200.0 mg/kg/injection, schedule: Q01DX001 (ip), vehicle: saline with Tween-80
[10] = dose: 400.0 mg/kg/injection, schedule: Q01DX001 (ip), vehicle: saline with Tween-80
[11] = dose: 100.0 mg/kg/injection, schedule: Q04DX003 (ip), vehicle: saline with Tween-80
[12] = dose: 200.0 mg/kg/injection, schedule: Q04DX003 (ip), vehicle: saline with Tween-80
[13] = dose: 400.0 mg/kg/injection, schedule: Q04DX003 (ip), vehicle: saline with Tween-80
[14] = dose: 200.0 mg/kg/injection, schedule: Q01DX009 (ip), vehicle: saline with Tween-80
[15] = dose: 100.0 mg/kg/injection, schedule: Q01DX009 (ip), vehicle: saline with Tween-80

Measured: T/C

CS(=O)(=O)OCCCNCCCOS(C)(=O)=O
inactive: dose: 6.3 mg/kg/injection, schedule: Q01DX009 (ip), vehicle: saline 123 % of control | dose: 6.3 mg/kg/injection, schedule: Q04DX003 (ip), vehicle: saline 119 % of control and 114 % of control | dose: 10.0 mg/kg/injection, schedule: Q03DX003 (ip), vehicle: saline 121 % of control | dose: 12.5 mg/kg/injection, schedule: Q01DX001 (ip), vehicle: saline 121 % of control and 120 % of control | dose: 12.5 mg/kg/injection, schedule: Q04DX003 (ip), vehicle: saline 119 % of control | dose: 25.0 mg/kg/injection, schedule: Q01DX001 (ip), vehicle: saline 110 % of control | dose: 65.0 mg/kg/injection, schedule: Q01DX001 (oral), vehicle: saline 106 % of control | dose: 65.0 mg/kg/injection, schedule: Q01DX009 (oral), vehicle: saline 90 % of control | [6] 95 % of control and 121 % of control | dose: 108.0 mg/kg/injection, schedule: Q01DX001 (oral), vehicle: saline 121 % of control | dose: 108.0 mg/kg/injection, schedule: Q01DX009 (oral), vehicle: saline 86 % of control | dose: 180.0 mg/kg/injection, schedule: Q01DX001 (oral), vehicle: saline 119 % of control | dose: 200.0 mg/kg/injection, schedule: Q04DX003 (ip), vehicle: saline 121 % of control and 123 % of control
active: dose: 20.0 mg/kg/injection, schedule: Q01DX007 (ip), vehicle: saline 162 % of control | dose: 20.0 mg/kg/injection, schedule: Q01DX009 (ip), vehicle: saline 164 % of control and 170 % of control | dose: 20.0 mg/kg/injection, schedule: Q04DX003 (ip), vehicle: saline 152 % of control | dose: 23.0 mg/kg/injection, schedule: Q01DX009 (ip), vehicle: saline 160 % of control | [1] 162 % of control [middle of 4 runs] | [2] 151 % of control and 155 % of control | dose: 39.0 mg/kg/injection, schedule: Q01DX009 (ip), vehicle: saline 171 % of control | dose: 39.0 mg/kg/injection, schedule: Q04DX003 (ip), vehicle: saline 152 % of control | dose: 40.0 mg/kg/injection, schedule: Q01DX007 (ip), vehicle: saline 167 % of control | dose: 40.0 mg/kg/injection, schedule: Q01DX009 (ip), vehicle: saline 171 % of control and 189 % of control and 206 % of control | dose: 40.0 mg/kg/injection, schedule: Q04DX003 (ip), vehicle: saline 152 % of control | dose: 50.0 mg/kg/injection, schedule: Q01DX001 (ip), vehicle: saline 150 % of control | [3] 219 % of control and 181 % of control and 239 % of control | [4] 177 % of control [middle of 4 runs] | dose: 65.0 mg/kg/injection, schedule: Q01DX009 (ip), vehicle: saline 168 % of control | dose: 65.0 mg/kg/injection, schedule: Q04DX003 (ip), vehicle: saline 179 % of control | [5] 161 % of control and 172 % of control and 155 % of control | [7] 261 % of control [middle of 5 runs] | dose: 108.0 mg/kg/injection, schedule: Q04DX003 (ip), vehicle: saline 205 % of control | dose: 108.0 mg/kg/injection, schedule: Q08DX002 (ip), vehicle: saline 150 % of control | dose: 180.0 mg/kg/injection, schedule: Q01DX001 (ip), vehicle: saline 150 % of control | dose: 200.0 mg/kg/injection, schedule: Q01DX001 (ip), vehicle: saline 277 % of control and 288 % of control and 517 % of control

CC1(C)COCN1COCCOCN1COCC1(C)C
inactive: dose: 6.25 mg/kg/injection, schedule: Q01DX009 (ip), vehicle: saline 97 % of control and 98 % of control | dose: 12.5 mg/kg/injection, schedule: Q01DX009 (ip), vehicle: saline 100 % of control and 101 % of control | [1] 105 % of control and 107 % of control | [3] 106 % of control and 107 % of control | [6] 95 % of control and 105 % of control

CCOc1ccccc1Nc1cc(=O)[nH]c(=O)[nH]1
inactive: [8] 100 % of control | [9] 97 % of control | [10] 92 % of control

CN(Cc1cnc(N)c(C#N)n1)c1ccc(C(=O)NC(CCC(=O)OC(C)(C)C)C(=O)OC(C)(C)C)cc1 (centres undefined)
inactive: dose: 100.0 mg/kg/injection, schedule: Q04DX002 (ip), vehicle: saline with Tween-80 91 % of control | dose: 200.0 mg/kg/injection, schedule: Q04DX002 (ip), vehicle: saline with Tween-80 91 % of control | dose: 400.0 mg/kg/injection, schedule: Q04DX002 (ip), vehicle: saline with Tween-80 102 % of control

O=[N+]([O-])c1ccc(OCCCBr)cc1
inactive: [11] 91 % of control | [12] 91 % of control | [13] 91 % of control

C(=NCc1ccccc1)c1ccccc1-c1ccccc1C=NCc1ccccc1
inactive: [11] 97 % of control | [12] 107 % of control | [13] 106 % of control

CSc1nn(C2OC(COC(=O)c3ccccc3)C(OC(=O)c3ccccc3)C2OC(=O)c2ccccc2)c(=O)[nH]c1=O (centres undefined)
inactive: dose: 12.5 mg/kg/injection, schedule: Q01DX005 (ip), vehicle: distilled water + Tween-80 98 % of control | dose: 25.0 mg/kg/injection, schedule: Q01DX005 (ip), vehicle: distilled water + Tween-80 93 % of control | dose: 50.0 mg/kg/injection, schedule: Q01DX005 (ip), vehicle: distilled water + Tween-80 97 % of control | dose: 100.0 mg/kg/injection, schedule: Q01DX005 (ip), vehicle: distilled water + Tween-80 93 % of control | dose: 200.0 mg/kg/injection, schedule: Q01DX005 (ip), vehicle: distilled water + Tween-80 95 % of control

O=C1C=C(c2ccccc2)OC(=O)C1C(=O)c1ccccc1 (centres undefined)
inactive: [8] 98 % of control | [9] 94 % of control

CCC[CH2][Sn]([CH2]CCC)[CH2]CCC.CCC[CH2][Sn]([CH2]CCC)[CH2]CCC
inactive: dose: 12.5 mg/kg/injection, schedule: Q04DX003 (ip), vehicle: Klucel (hydroxypropylcellulose) (HPC) 93 % of control | [2] 97 % of control | [4] 97 % of control

Nc1ccccc1N
inactive: dose: 25.0 mg/kg/injection, schedule: Q01DX009 (ip), vehicle: saline with Tween-80 95 % of control | [14] 93 % of control

O=c1cc(CO)[nH]c(=O)[nH]1
inactive: dose: 12.5 mg/kg/injection, schedule: Q01DX009 (ip), vehicle: other 91 % of control | dose: 25.0 mg/kg/injection, schedule: Q01DX009 (ip), vehicle: other 94 % of control | dose: 50.0 mg/kg/injection, schedule: Q01DX009 (ip), vehicle: other 91 % of control | dose: 100.0 mg/kg/injection, schedule: Q01DX009 (ip), vehicle: other 92 % of control | dose: 200.0 mg/kg/injection, schedule: Q01DX009 (ip), vehicle: other 97 % of control

O=C1c2ccccc2C(=O)N1CCCCCCCCCCN1C(=O)c2ccccc2C1=O
inactive: [15] 92 % of control | [14] 89 % of control | dose: 400.0 mg/kg/injection, schedule: Q01DX009 (ip), vehicle: saline with Tween-80 93 % of control

OC(c1ccccc1)c1ccc2c(c1)CCC2 (centres undefined)
inactive: [11] 102 % of control | [12] 98 % of control | [13] 94 % of control

O=[N+]([O-])c1ccc(/C=C2/c3ccccc3-c3nc4ccccc4cc32)cc1
inactive: [8] 93 % of control | [9] 87 % of control | [10] 93 % of control

NC1(C(=O)O)CCCC1.[Zn+2]
inactive: [5] 100 % of control | dose: 400.0 mg/kg/injection, schedule: Q01DX001 (ip), vehicle: saline 120 % of control

Clc1cc(Cl)cc(Nc2nc(C(Cl)(Cl)Cl)nc(C(Cl)(Cl)Cl)n2)c1
inactive: dose: 50.0 mg/kg/injection, schedule: Q01DX009 (ip), vehicle: saline with Tween-80 98 % of control | [15] 95 % of control | [11] 89 % of control | [14] 90 % of control | [12] 86 % of control

CCC(C#N)=C1CCCCC1
inactive: [2] 93 % of control | [4] 91 % of control | [7] 91 % of control

CCOC(=O)CC1=Nc2c(Cl)ncnc2NN1
inactive: dose: 100.0 mg/kg/injection, schedule: Q01DX001 (ip), vehicle: carboxymethylcellulose (CMC) 95 % of control | dose: 200.0 mg/kg/injection, schedule: Q01DX001 (ip), vehicle: carboxymethylcellulose (CMC) 91 % of control

COc1cc2c(cc1OC)C(N)CCC2 (centres undefined)
inactive: dose: 12.5 mg/kg/injection, schedule: Q01DX009 (ip), vehicle: water 97 % of control | dose: 25.0 mg/kg/injection, schedule: Q01DX009 (ip), vehicle: water 103 % of control | dose: 50.0 mg/kg/injection, schedule: Q01DX009 (ip), vehicle: water 98 % of control | dose: 100.0 mg/kg/injection, schedule: Q01DX009 (ip), vehicle: water 105 % of control
